The source of these data is patent publication US10442791B2, “DNA-PK inhibitors” (Vertex Pharmaceuticals Incorporated, priority 2012, dated 2019).

This assay concerns the target DNA-PK (Homo sapiens, UniProt P78527). The assay can be described thus: DNA-PK inhibition assay (radiometric 33P-ATP kinase assay). Type of assay: biochemical. The conditions noted are these: 100 μM ATP; competitive tight-binding fit. The protocol:
Compounds were screened for their ability to inhibit DNA-PK kinase using a standard radiometric assay. Briefly, in this kinase assay the transfer of the terminal ^33P-phosphate in ^33P-ATP to a peptide substrate is interrogated. The assay was carried out in 384-well plates to a final volume of 50 μL per well containing approximately 6 nM DNA-PK, 50 mM HEPES (pH 7.5), 10 mM MgCl2, 25 mM NaCl, 0.01% BSA, 1 mM DTT, 10 μg/mL sheared double-stranded DNA (obtained from Sigma), 0.8 mg/mL DNA-PK peptide ([…] obtained from American Peptide), and 100 μM ATP. Accordingly, compounds of the invention were dissolved in DMSO to make 10 mM initial stock solutions. Serial dilutions in DMSO were then made to obtain the final solutions for the assay. A 0.75 μL aliquot of DMSO or inhibitor in DMSO was added to each well, followed by the addition of ATP substrate solution containing ^33P-ATP (obtained from Perkin Elmer). The reaction was started by the addition of DNA-PK, peptide and ds-DNA. After 45 min. the reaction was quenched with 25 μL of 5% phosphoric acid. The reaction mixture was transferred to MultiScreen HTS 384-well PH plates (obtained from Millipore), allowed to bind for one hour, and washed three times with 1% phosphoric acid. Following the addition of 50 μL of Ultima Gold™ high efficiency scintillant (obtained from Perkin Elmer), the samples were counted in a Packard TopCount NXT Microplate Scintillation and Luminescence Counter (Packard BioScience). The Ki values were calculated using Microsoft Excel Solver macros to fit the data to the kinetic model for competitive tight-binding inhibition.
The compound `CNC(=O)c1c(F)cnc2c([C@H](C)CNc3cc(-c4cnc(N(C)C5CCN(C)CC5)nc4)ncn3)cccc12` [Compound 1058] showed a Ki of less than 30 nM.

`CCN(CC)c1cc(-c2cc(NC[C@@H](C)c3cccc4c(C(=O)NC)ccnc34)ncn2)ccn1` [Compound 892] gave a Ki of less than 30 nM.

In turn, `CNC(=O)c1ccnc2c([C@H](C)CNc3cc(-c4ccc(CC5CCN(C)CC5)nc4)ncn3)cccc12` [Compound 989] came in with a Ki of less than 30 nM.

In turn, `CNC(=O)c1ccnc2c([C@H](C)CNc3cc(-c4cnc(OC5CCN(C)CC5)nc4)ncn3)ccc(F)c12` [Compound 1073] had an inhibition constant (Ki) of less than 30 nM.

Consider `CNC(=O)c1c(F)cnc2c([C@H](C)CNc3cc(-c4ccc(C5(O)COC5)nc4)ncn3)cccc12` [Compound 1068], for which the Ki was less than 30 nM.

Compound `CNC(=O)c1c(F)cnc2c([C@H](C)CNc3cc(-c4cnc(N(C)C5CCN(CC(F)(F)F)CC5)nc4)ncn3)cccc12` [Compound 1082] showed a Ki of less than 30 nM.

For `CNC(=O)CNc1ncc(-c2cc(NC[C@@H](C)c3cccc4c(C(=O)NC)ccnc34)ncn2)cn1` [Compound 1074], the Ki was less than 30 nM.

Compound `CNC(=O)c1c(F)cnc2c([C@H](C)CNc3cc(-c4ccc(N(C)C5CCN(C)CC5)nc4)ncn3)cccc12` [Compound 1087] gave an inhibition constant (Ki) of less than 30 nM.

With `CNC(=O)c1c(F)cnc2c([C@H](C)CNc3cc(-c4ccc(NC5CCN(CC(F)F)CC5)nc4)ncn3)cccc12` [Compound 1084], the Ki is less than 30 nM.

Take `CNC(=O)c1ccnc2c([C@H](C)CNc3cc(-c4cnc(NC5CCN(C(C)=O)CC5)nc4)ncn3)ccc(F)c12` [Compound 1055]: the Ki was less than 30 nM.

The compound `CNC(=O)c1ccnc2c([C@H](C)CNc3cc(-c4ccc(CC5CCN(C(C)=O)CC5)nc4)ncn3)cccc12` [Compound 1007] returned an inhibitory constant (Ki) of less than 30 nM.

The compound `[2H]C([2H])([2H])C([2H])([2H])c1ncc(-c2cc(NC[C@@H](C)c3cccc4c(C(=O)NC)c(F)cnc34)ncn2)cn1` [Compound 1004] gave an inhibitory constant (Ki) of less than 30 nM.

For `CNC(=O)c1ccnc2c([C@H](C)CNc3cc(-c4cnc(OC)nc4)ncn3)ccc(F)c12` [Compound 1031], the Ki was less than 30 nM.

The compound `CNC(=O)c1ccnc2c([C@H](C)CNc3cc(-c4cnc(NCC(F)(F)F)nc4)ncn3)cccc12` [Compound 1066] registered an inhibition constant (Ki) of less than 30 nM.

For the compound `CNC(=O)c1ncnc2c([C@H](C)CNc3cc(-c4ccc(C#N)cc4)ncn3)cccc12` [Compound 1010], the inhibition constant (Ki) was less than 30 nM.

With `CNC(=O)c1ccnc2c([C@H](C)CNc3cc(-c4cnc(CC5CCN(CC(F)(F)F)CC5)nc4)ncn3)cccc12` [Compound 1047], the inhibition constant (Ki) was less than 30 nM.

Compound `CNC(=O)c1ccnc2c([C@H](C)CNc3cc(-c4ccc(CC5CCN(CC(F)F)CC5)nc4)ncn3)ccc(F)c12` [Compound 1020] showed a Ki of less than 30 nM.

Regarding `CNC(=O)c1c(F)cnc2c([C@H](C)CNc3cc(-c4ccc(NC5CCN(CC(F)(F)F)CC5)nc4)ncn3)cccc12` [Compound 1086], the Ki was less than 30 nM.

On to `CNC(=O)c1c(F)cnc2c([C@H](C)CNc3cc(-c4cnc(C(C)C)nc4)ncn3)cccc12` [Compound 859], for which the inhibition constant Ki was less than 30 nM.

On to `CNC(=O)c1ccnc2c([C@H](C)CNc3cc(-c4cnc(NC5CC5)nc4)ncn3)cccc12` [Compound 1029], for which the Ki was less than 30 nM.

The compound `CNC(=O)c1ccnc2c([C@H](C)CNc3cc(-c4cnc(COC(C)C)nc4)ncn3)cccc12` [Compound 1014] gave an inhibition constant Ki of less than 30 nM.

Compound `CNC(=O)c1ccnc2c([C@H](C)CNc3cc(-c4ccc(NC5CCN(C(C)=O)CC5)nc4)ncn3)cccc12` [Compound 1064] gave a Ki of less than 30 nM.

Take `CNC(=O)c1c(F)cnc2c([C@H](C)CNc3cc(-c4cnc(OC)nc4)ncn3)cccc12` [Compound 1035]: the Ki was less than 30 nM.

For `CNC(=O)c1ccnc2c([C@H](C)CNc3cc(-c4ccc(CC5CCN(C)CC5)nc4)ncn3)ccc(F)c12` [Compound 992], the Ki is less than 30 nM.

Turning to `Cc1ccc(-c2cc(NC[C@@H](C)c3cccc4c3ncc3[nH]n(C)c(=O)c34)ncn2)cn1` [Compound 994], the inhibition constant Ki is less than 30 nM.

Turning to `CNC(=O)c1c(F)cnc2c([C@H](C)CNc3cc(-c4cnc(CC5CCN(C)CC5)nc4)ncn3)cccc12` [Compound 1002], the Ki is less than 30 nM.

As for `CNC(=O)c1ccnc2c([C@H](C)CNc3cc(-c4cnc(CC5CCN(CC(F)F)CC5)nc4)ncn3)cccc12` [Compound 1045], the Ki is less than 30 nM.

The Ki is the equilibrium dissociation constant of an inhibitor or competing ligand from its target. Low values mean tighter binding, high ones weaker binding.
